{
  "source": "paper PMC6753678",
  "about": "“Fueling Open Innovation for Malaria Transmission-Blocking Drugs: Hundreds of Molecules Targeting Early Parasite Mosquito Stages” (Frontiers in Microbiology, 2019)",
  "system": "P. berghei ookinete development",
  "settings": "primary screen at 1 μM",
  "data": [
    {"smiles": "Cc1nc(C)c(-c2ccc(C(=O)c3ccccc3)cc2)c(O)c1Br", "note": "[TCMDC-137419]", "values": [
      {"measurement": "% inhibition, Replicate A", "value": 112.31, "unit": "%"},
      {"measurement": "% inhibition, Replicate B", "value": 126.66, "unit": "%"}
    ]},
    {"smiles": "CCN1CCN(CCCNc2c3ccc(Cl)cc3nc3ccc(OC)cc23)CC1.Cl", "note": "[TCMDC-137586]", "values": [
      {"measurement": "% inhibition, Replicate A", "value": 79.33, "unit": "%"},
      {"measurement": "% inhibition, Replicate B", "value": 90.04, "unit": "%"}
    ]},
    {"smiles": "CC=Cc1cc(Cc2c[nH]c(=N)[nH]c2=N)cc(CCC)c1OC", "note": "[TCMDC-137634]", "values": [
      {"measurement": "% inhibition, Replicate A", "value": 54.07, "unit": "%"},
      {"measurement": "% inhibition, Replicate B", "value": 40.96, "unit": "%"}
    ]},
    {"smiles": "Cl.N=C(N)NN=Cc1cc2ccccc2c2ccccc12", "note": "[TCMDC-137671]", "values": [
      {"measurement": "% inhibition, Replicate A", "value": 63.22, "unit": "%"},
      {"measurement": "% inhibition, Replicate B", "value": 44.77, "unit": "%"}
    ]},
    {"smiles": "CCCCCc1cnc2nc(N)nc(N)c2c1C.Cl", "note": "[TCMDC-137717]", "values": [
      {"measurement": "% inhibition, Replicate A", "value": 60.03, "unit": "%"},
      {"measurement": "% inhibition, Replicate B", "value": 27.06, "unit": "%"}
    ]},
    {"smiles": "CC(CO)(CO)NCc1cc2ccc3ccsc3c2c2ccccc12.CS(=O)(=O)O", "note": "[TCMDC-137753]", "values": [
      {"measurement": "% inhibition, Replicate A", "value": 48.80, "unit": "%"},
      {"measurement": "% inhibition, Replicate B", "value": 68.87, "unit": "%"}
    ]},
    {"smiles": "CC(C)(C)c1ccc(Cc2cccc3nc(N)nc(N)c23)cc1", "note": "[TCMDC-137821]", "values": [
      {"measurement": "% inhibition, Replicate A", "value": 61.67, "unit": "%"},
      {"measurement": "% inhibition, Replicate B", "value": 24.79, "unit": "%"}
    ]},
    {"smiles": "CC(C)n1ncc2c3c(N)nc(N)nc3ccc21", "note": "[TCMDC-137866]", "values": [
      {"measurement": "% inhibition, Replicate A", "value": 87.47, "unit": "%"},
      {"measurement": "% inhibition, Replicate B", "value": 39.71, "unit": "%"}
    ]},
    {"smiles": "Cl.N=C(N)NN=Cc1c2ccccc2c(Cl)c2c(Cl)cccc12", "note": "[TCMDC-137898]", "values": [
      {"measurement": "% inhibition, Replicate A", "value": 66.37, "unit": "%"},
      {"measurement": "% inhibition, Replicate B", "value": 24.36, "unit": "%"}
    ]},
    {"smiles": "Cc1nc(N)nc(N)c1CCCOc1ccccc1Cl", "note": "[TCMDC-137929]", "values": [
      {"measurement": "% inhibition, Replicate A", "value": 38.99, "unit": "%"},
      {"measurement": "% inhibition, Replicate B", "value": 55.23, "unit": "%"}
    ]},
    {"smiles": "CCCc1cc2c3c(N)nc(N)nc3ccc2n1CC", "note": "[TCMDC-137946]", "values": [
      {"measurement": "% inhibition, Replicate A", "value": 61.03, "unit": "%"},
      {"measurement": "% inhibition, Replicate B", "value": 76.85, "unit": "%"}
    ]},
    {"smiles": "CCCC(CC)n1ccc2c3c(N)nc(N)nc3ccc21.CS(=O)(=O)O", "note": "(stereo not drawn) [TCMDC-137948]", "values": [
      {"measurement": "% inhibition, Replicate A", "value": 49.24, "unit": "%"},
      {"measurement": "% inhibition, Replicate B", "value": 73.56, "unit": "%"}
    ]},
    {"smiles": "Cc1cc2c3c(N)nc(N)nc3ccc2n1C", "note": "[TCMDC-137957]", "values": [
      {"measurement": "% inhibition, Replicate A", "value": 66.89, "unit": "%"},
      {"measurement": "% inhibition, Replicate B", "value": 77.62, "unit": "%"}
    ]},
    {"smiles": "Cl.Nc1nc(N)c2c(ccc3nn(Cc4cccnc4)cc32)n1", "note": "[TCMDC-137968]", "values": [
      {"measurement": "% inhibition, Replicate A", "value": 30.53, "unit": "%"},
      {"measurement": "% inhibition, Replicate B", "value": 62.42, "unit": "%"}
    ]},
    {"smiles": "COc1ccc(O)c(Cc2cnc3nc(N)nc(N)c3c2C)c1.O=C(O)C(F)(F)F", "note": "[TCMDC-137998]", "values": [
      {"measurement": "% inhibition, Replicate A", "value": 11.48, "unit": "%"},
      {"measurement": "% inhibition, Replicate B", "value": 55.44, "unit": "%"}
    ]},
    {"smiles": "COc1ccc2nc3cc(Cl)ccc3c(Nc3ccc(C(=O)O)cc3)c2c1.Cl", "note": "[TCMDC-138029]", "values": [
      {"measurement": "% inhibition, Replicate A", "value": 92.30, "unit": "%"},
      {"measurement": "% inhibition, Replicate B", "value": 90.70, "unit": "%"}
    ]},
    {"smiles": "C=CCc1cc(Cc2cnc(N)nc2N)cc(CCC)c1OC", "note": "[TCMDC-138039]", "values": [
      {"measurement": "% inhibition, Replicate A", "value": 8.79, "unit": "%"},
      {"measurement": "% inhibition, Replicate B", "value": 53.34, "unit": "%"}
    ]},
    {"smiles": "CCOC(=O)c1cc2c(CCN3C(=O)c4ccccc4C3=O)cn(C)c2cc1-c1ccncc1", "note": "[TCMDC-138099]", "values": [
      {"measurement": "% inhibition, Replicate A", "value": 54.94, "unit": "%"},
      {"measurement": "% inhibition, Replicate B", "value": 51.34, "unit": "%"}
    ]},
    {"smiles": "CCC[C@@H]([C@@H](CC1CCCCC1)C(=O)N[C@H](C(=O)Nc1nccs1)C(C)(C)SC)N(O)C=O", "note": "[TCMDC-138113]", "values": [
      {"measurement": "% inhibition, Replicate A", "value": 7.94, "unit": "%"},
      {"measurement": "% inhibition, Replicate B", "value": 61.12, "unit": "%"}
    ]},
    {"smiles": "COc1cc(Cc2cnc(N)nc2N)ccc1OCc1ccc(-c2csnn2)cc1", "note": "[TCMDC-138683]", "values": [
      {"measurement": "% inhibition, Replicate A", "value": 55.66, "unit": "%"},
      {"measurement": "% inhibition, Replicate B", "value": 28.96, "unit": "%"}
    ]},
    {"smiles": "COc1cc(-c2cnc(N)c(-c3nc4ccccc4[nH]3)c2)cc(OC)c1OC.Cl", "note": "[TCMDC-138793]", "values": [
      {"measurement": "% inhibition, Replicate A", "value": 57.35, "unit": "%"},
      {"measurement": "% inhibition, Replicate B", "value": 34.54, "unit": "%"}
    ]},
    {"smiles": "COc1ccc2c(=O)c(-c3ccc(OC(F)(F)F)cc3)c(C)[nH]c2c1", "note": "[TCMDC-138811]", "values": [
      {"measurement": "% inhibition, Replicate A", "value": 34.78, "unit": "%"},
      {"measurement": "% inhibition, Replicate B", "value": 69.73, "unit": "%"}
    ]},
    {"smiles": "COc1ccc2nccc(C(=O)NC3CCC(CCN4CCc5cc(C#N)ccc5C4)CC3)c2c1.Cl", "note": "(stereo not drawn) [TCMDC-139240]", "values": [
      {"measurement": "% inhibition, Replicate A", "value": 53.92, "unit": "%"},
      {"measurement": "% inhibition, Replicate B", "value": 18.69, "unit": "%"}
    ]},
    {"smiles": "Cc1cc(-c2ccc(NC(=O)Nc3ccc4nccc(N5CCN(C)CC5)c4c3)cc2C)cc(C)n1.Cl", "note": "[TCMDC-139355]", "values": [
      {"measurement": "% inhibition, Replicate A", "value": 53.36, "unit": "%"},
      {"measurement": "% inhibition, Replicate B", "value": 17.60, "unit": "%"}
    ]}
  ]
}
